Assay results: patent US9708336B2, “Metallo-beta-lactamase inhibitors” (priority 2014, dated 2017)
Where two headings read alike, the source gives them in different places.

Key:
IMP-1 = IMP-1 (Serratia marcescens, UniProt P52699); assay: biochemical; assay type: biochemical; details: fluorescence assay with CCF2-FA substrate; read-out: IMP-1 IC50
[1] = test system: Klebsiella pneumoniae expressing VIM-1 (IHMA599644); assay: Antibiotic potentiation activity: synergistic concentration (MITC95) with imipenem, OD600 growth; assay type: cell-based; details: concentration giving 95% inhibition of bacterial growth
Summary of the method: (§1)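 In 1.1× CAMHB, clinical isolates from overnight plates were challenged with test compound alongside imipenem at an assay concentration of 4 μg/ml, sometimes 1 μg/ml. Plates sat covered at 35 °C for 22–24 h prior to spectrophotometric reading.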

[2] = test system: Escherichia coli expressing NDM-1 (CLB30016); assay: as above; assay type: cell-based; details: concentration giving 95% inhibition of bacterial growth
Summary of the method: as §1

[3] = test system: Serratia marcescens expressing IMP-1 (CL5741); assay: as above; assay type: cell-based; details: concentration giving 95% inhibition of bacterial growth
Summary of the method: as §1

NDM-1 = NDM-1 (Klebsiella pneumoniae, UniProt C7C422); assay: biochemical; assay type: biochemical; details: fluorescence assay with CCF2-FA substrate; read-out: NDM-1 IC50
Chain of NDM-1 (C7C422 whole entry, looked up, species assumed): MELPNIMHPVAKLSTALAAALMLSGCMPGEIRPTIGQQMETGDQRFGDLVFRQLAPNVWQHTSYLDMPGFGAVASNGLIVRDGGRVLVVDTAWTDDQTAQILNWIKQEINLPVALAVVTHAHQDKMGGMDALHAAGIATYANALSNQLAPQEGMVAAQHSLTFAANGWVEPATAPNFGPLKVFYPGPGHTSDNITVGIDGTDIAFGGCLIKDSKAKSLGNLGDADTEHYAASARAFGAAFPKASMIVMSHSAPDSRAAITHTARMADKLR

VIM-1 = VIM-1 (Pseudomonas aeruginosa (strain ATCC 15692 / DSM 22644 / CIP 104116 / JCM 14847 / LMG 12228 / 1C / PRS 101 / PAO1), UniProt A0A0F7KYQ8); assay: Enzyme activity: determination of IC50, fluorescence assay with CCF2-FA substrate (VIM-1); assay type: biochemical
[4] = fluorescence assay with CCF2-FA substrate, read-out: VIM-1 IC50
[5] = VIM-1 IC50, fluorescence assay with CCF2-FA substrate

Chain of IMP-1 (P52699 whole entry, looked up): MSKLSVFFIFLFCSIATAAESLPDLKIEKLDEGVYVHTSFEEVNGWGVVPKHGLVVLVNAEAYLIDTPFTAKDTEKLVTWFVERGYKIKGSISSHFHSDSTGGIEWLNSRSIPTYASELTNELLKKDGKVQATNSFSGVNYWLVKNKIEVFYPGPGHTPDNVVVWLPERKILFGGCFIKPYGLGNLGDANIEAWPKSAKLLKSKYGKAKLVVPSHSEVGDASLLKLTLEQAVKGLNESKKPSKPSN

NS(=O)(=O)c1nccc(N2CCCC(c3ccccn3)C2)c1-c1nnn[nH]1 (stereo not drawn) [Example 220, 4-(3-pyridin-2-ylpiperidin-1-yl)-3-(1H-tetrazol-5-yl)pyridine-2-sulfonamide]
IC50 (IMP-1): 2.39 µM
Klebsiella pneumoniae expressing VIM-1 (IHMA 599644) MITC95 [1]: >200 µM
Escherichia coli expressing NDM-1 (CLB 30016) MITC95 [2]: 12.5 µM
Serratia marcescens expressing IMP-1 (CL5741) MITC95 [3]: 75 µM
IC50 (NDM-1): 0.0228 µM
IC50 (VIM-1; [4]): 0.234 µM

NS(=O)(=O)c1nccc(N2CCC3(CC2)NCNC3=O)c1-c1nnn[nH]1 [Example 221, 4-(4-oxo-1,3,8-triazaspiro[4.5]dec-8-yl)-3-(1H-tetrazol-5-yl)pyridine-2-sulfonamide]
IC50 (IMP-1): 6.17 µM
Klebsiella pneumoniae expressing VIM-1 (IHMA 599644) MITC95 [1]: 200 µM
Escherichia coli expressing NDM-1 (CLB 30016) MITC95 [2]: 4.688 µM
Serratia marcescens expressing IMP-1 (CL5741) MITC95 [3]: 100 µM
IC50 (NDM-1): 0.251 µM
IC50 (VIM-1; [4]): 6.17 µM

NS(=O)(=O)c1nccc(N2CCC(N3CCCC3)CC2)c1-c1nnn[nH]1 [Example 222, 4-(4-pyrrolidin-1-ylpiperidin-1-yl)-3-(1H-tetrazol-5-yl)pyridine-2-sulfonamide]
IC50 (IMP-1): 20 µM
Klebsiella pneumoniae expressing VIM-1 (IHMA 599644) MITC95 [1]: 12.5 µM
Escherichia coli expressing NDM-1 (CLB 30016) MITC95 [2]: 12.5 µM
Serratia marcescens expressing IMP-1 (CL5741) MITC95 [3]: 75 µM
IC50 (NDM-1): 5.15 µM
IC50 (VIM-1; [4]): 0.794 µM

CC(C1CCN(c2ccnc(S(N)(=O)=O)c2-c2nnn[nH]2)CC1)N1CCOCC1 (stereo not drawn) [Example 223, 4-[4-(1-morpholin-4-ylethyl)piperidin-1-yl]-3-(1H-tetrazol-5-yl)pyridine-2-sulfonamide]
IC50 (IMP-1): 1.3 µM
Klebsiella pneumoniae expressing VIM-1 (IHMA 599644) MITC95 [1]: 200 µM
Escherichia coli expressing NDM-1 (CLB 30016) MITC95 [2]: 4.688 µM
Serratia marcescens expressing IMP-1 (CL5741) MITC95 [3]: 25 µM
IC50 (NDM-1): 0.157 µM
IC50 (VIM-1; [4]): 0.583 µM

NS(=O)(=O)c1nccc(N2CCC(c3cnc4n3CCCC4)CC2)c1-c1nnn[nH]1 [Example 225, 4-[4-(5,6,7,8-tetrahydroimidazo[1,2-a]pyridin-3-yl)piperidin-1-yl]-3-(1H-tetrazol-5-yl)pyridine-2-sulfonamide]
IC50 (IMP-1): 0.0762 µM
Klebsiella pneumoniae expressing VIM-1 (IHMA 599644) MITC95 [1]: 50 µM
Escherichia coli expressing NDM-1 (CLB 30016) MITC95 [2]: 9.375 µM
Serratia marcescens expressing IMP-1 (CL5741) MITC95 [3]: 2.344 µM
IC50 (NDM-1): 0.142 µM
IC50 (VIM-1; [4]): 0.226 µM

NS(=O)(=O)c1nccc(N2CCC(N3CC[C@H](O)C3)CC2)c1-c1nnn[nH]1 [Example 226, 4-{4-[(3S)-3-hydroxypyrrolidin-1-yl]piperidin-1-yl}-3-(1H-tetrazol-5-yl)pyridine-2-sulfonamide]
IC50 (IMP-1): 3.87 µM
Klebsiella pneumoniae expressing VIM-1 (IHMA 599644) MITC95 [1]: 12.5 µM
Escherichia coli expressing NDM-1 (CLB 30016) MITC95 [2]: 6.25 µM
Serratia marcescens expressing IMP-1 (CL5741) MITC95 [3]: 50 µM
IC50 (NDM-1): 0.481 µM
IC50 (VIM-1; [4]): 0.71 µM

NS(=O)(=O)c1nccc(N2CCC(N3CCNCC3)CC2)c1-c1nnn[nH]1 [Example 227, 4-(4-piperazin-1-ylpiperidin-1-yl)-3-(1H-tetrazol-5-yl)pyridine-2-sulfonamide]
IC50 (IMP-1): 7.07 µM
Klebsiella pneumoniae expressing VIM-1 (IHMA 599644) MITC95 [1]: 6.25 µM
Escherichia coli expressing NDM-1 (CLB 30016) MITC95 [2]: 3.125 µM
Serratia marcescens expressing IMP-1 (CL5741) MITC95 [3]: 75 µM
IC50 (NDM-1): 0.888 µM
IC50 (VIM-1; [4]): 0.261 µM

NS(=O)(=O)c1nccc(N2CCC(n3ccnc3)CC2)c1-c1nnn[nH]1 [Example 228, 4-[4-(1H-imidazol-1-yl)piperidin-1-yl]-3-(1H-tetrazol-5-yl)pyridine-2-sulfonamide]
IC50 (IMP-1): 3.21 µM
Klebsiella pneumoniae expressing VIM-1 (IHMA 599644) MITC95 [1]: 37.5 µM
Escherichia coli expressing NDM-1 (CLB 30016) MITC95 [2]: 1.563 µM
Serratia marcescens expressing IMP-1 (CL5741) MITC95 [3]: 37.5 µM
IC50 (NDM-1): 0.372 µM
IC50 (VIM-1; [4]): 0.343 µM

CN(Cc1ccccc1)c1ccnc(S(N)(=O)=O)c1-c1nnn[nH]1 [Example 229, 4-[benzyl(methyl)amino]-3-(1H-tetrazol-5-yl)pyridine-2-sulfonamide]
IC50 (IMP-1): 0.466 µM
Klebsiella pneumoniae expressing VIM-1 (IHMA 599644) MITC95 [1]: 6.25 µM
Escherichia coli expressing NDM-1 (CLB 30016) MITC95 [2]: 12.5 µM
Serratia marcescens expressing IMP-1 (CL5741) MITC95 [3]: 50 µM
IC50 (NDM-1): 0.204 µM
IC50 (VIM-1; [5]): 0.00222 µM

Cn1cncc1C1CCN(c2ccnc(S(N)(=O)=O)c2-c2nnn[nH]2)CC1 [Example 230, 4-[4-(1-methyl-1H-imidazol-5-yl)piperidin-1-yl]-3-(1H-tetrazol-5-yl)pyridine-2-sulfonamide]
IC50 (IMP-1): 0.797 µM
Klebsiella pneumoniae expressing VIM-1 (IHMA 599644) MITC95 [1]: 37.5 µM
Escherichia coli expressing NDM-1 (CLB 30016) MITC95 [2]: 1.563 µM
Serratia marcescens expressing IMP-1 (CL5741) MITC95 [3]: 18.75 µM
IC50 (NDM-1): 0.206 µM
IC50 (VIM-1; [5]): 0.164 µM

NS(=O)(=O)c1nccc(N2CCC(Oc3ncccn3)CC2)c1-c1nnn[nH]1 [Example 231, 4-[4-(pyrimidin-2-yloxy)piperidin-1-yl]-3-(1H-tetrazol-5-yl)pyridine-2-sulfonamide]
IC50 (IMP-1): 0.423 µM
Klebsiella pneumoniae expressing VIM-1 (IHMA 599644) MITC95 [1]: >200 µM
Escherichia coli expressing NDM-1 (CLB 30016) MITC95 [2]: 4.688 µM
Serratia marcescens expressing IMP-1 (CL5741) MITC95 [3]: 18.75 µM
IC50 (NDM-1): 0.0108 µM
IC50 (VIM-1; [4]): 0.326 µM

CN(c1ccnc(S(N)(=O)=O)c1-c1nnn[nH]1)C1CCCCC1 [Example 232, 4-[cyclohexyl(methyl)amino]-3-(1H-tetrazol-5-yl)pyridine-2-sulfonamide]
IC50 (IMP-1): 7.64 µM
Klebsiella pneumoniae expressing VIM-1 (IHMA 599644) MITC95 [1]: 150 µM
Escherichia coli expressing NDM-1 (CLB 30016) MITC95 [2]: 50 µM
Serratia marcescens expressing IMP-1 (CL5741) MITC95 [3]: >200 µM
IC50 (NDM-1): 0.892 µM
IC50 (VIM-1; [5]): 0.166 µM

NS(=O)(=O)c1nccc(N2CCC(Cn3ccnc3)CC2)c1-c1nnn[nH]1 [Example 233, 4-[4-(1H-imidazol-1-ylmethyl)piperidin-1-yl]-3-(1H-tetrazol-5-yl)pyridine-2-sulfonamide]
IC50 (IMP-1): 0.195 µM
Klebsiella pneumoniae expressing VIM-1 (IHMA 599644) MITC95 [1]: 37.5 µM
Escherichia coli expressing NDM-1 (CLB 30016) MITC95 [2]: 0.7813 µM
Serratia marcescens expressing IMP-1 (CL5741) MITC95 [3]: 6.25 µM
IC50 (NDM-1): 0.0609 µM
IC50 (VIM-1; [4]): 0.0976 µM

NS(=O)(=O)c1nccc(NC2CCCCC2)c1-c1nnn[nH]1 [Example 234, 4-(cyclohexylamino)-3-(1H-tetrazol-5-yl)pyridine-2-sulfonamide]
IC50 (IMP-1): 1.45 µM
Klebsiella pneumoniae expressing VIM-1 (IHMA 599644) MITC95 [1]: >200 µM
Escherichia coli expressing NDM-1 (CLB 30016) MITC95 [2]: 4.688 µM
Serratia marcescens expressing IMP-1 (CL5741) MITC95 [3]: 100 µM
IC50 (NDM-1): 0.0245 µM
IC50 (VIM-1; [4]): 1.17 µM

NS(=O)(=O)c1nccc(NCCC2CCCCC2)c1-c1nnn[nH]1 [Example 236, 4-[(2-cyclohexylethyl)amino]-3-(1H-tetrazol-5-yl)pyridine-2-sulfonamide]
IC50 (IMP-1): 0.223 µM
Klebsiella pneumoniae expressing VIM-1 (IHMA 599644) MITC95 [1]: >200 µM
Escherichia coli expressing NDM-1 (CLB 30016) MITC95 [2]: 18.75 µM
Serratia marcescens expressing IMP-1 (CL5741) MITC95 [3]: 25 µM
IC50 (NDM-1): 0.0386 µM
IC50 (VIM-1; [4]): 0.188 µM

NS(=O)(=O)c1nccc(NCCc2ccccc2)c1-c1nnn[nH]1 [Example 237, 4-[(2-phenylethyl)amino]-3-(1H-tetrazol-5-yl)pyridine-2-sulfonamide]
IC50 (IMP-1): 0.581 µM
Klebsiella pneumoniae expressing VIM-1 (IHMA 599644) MITC95 [1]: >200 µM
Escherichia coli expressing NDM-1 (CLB 30016) MITC95 [2]: 18.75 µM
Serratia marcescens expressing IMP-1 (CL5741) MITC95 [3]: 125 µM
IC50 (NDM-1): 0.102 µM
IC50 (VIM-1; [4]): 0.239 µM

NS(=O)(=O)c1nccc(N2CCC(Cc3ccncc3)CC2)c1-c1nnn[nH]1 [Example 238, 4-[4-(pyridin-4-ylmethyl)piperidin-1-yl]-3-(1H-tetrazol-5-yl)pyridine-2-sulfonamide]
IC50 (IMP-1): 0.189 µM
Klebsiella pneumoniae expressing VIM-1 (IHMA 599644) MITC95 [1]: 125 µM
Escherichia coli expressing NDM-1 (CLB 30016) MITC95 [2]: 3.125 µM
Serratia marcescens expressing IMP-1 (CL5741) MITC95 [3]: 9.375 µM
IC50 (NDM-1): 0.0308 µM
IC50 (VIM-1; [5]): 0.0969 µM
